Assay results from PubChem BioAssay (NCI).
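GI50: concentration for 50% inhibition of growth. TGI marks complete inhibition of growth.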

What was measured:
Experiment in all cases: NCI tumour cell line growth inhibition, 384-well format
786-0 renal = test system: 786-0 renal
A498 renal = test system: A498 renal
A549 NSCLC = test system: A549 NSCLC
ACHN renal = test system: ACHN renal
BT-549 breast = test system: BT-549 breast
CAKI-1 renal = test system: CAKI-1 renal
CCRF-CEM leukemia = test system: CCRF-CEM leukemia
COLO 205 colon = test system: COLO 205 colon
DU-145 prostate = test system: DU-145 prostate
HCC-2998 colon = test system: HCC-2998 colon
HCT-116 colon = test system: HCT-116 colon
HCT-15 colon = test system: HCT-15 colon
HL-60(TB) leukemia = test system: HL-60(TB) leukemia
HOP-62 NSCLC = test system: HOP-62 NSCLC
HOP-92 NSCLC = test system: HOP-92 NSCLC
HT29 colon = test system: HT29 colon
IGROV1 ovarian = test system: IGROV1 ovarian
K-562 leukemia = test system: K-562 leukemia
KM12 colon = test system: KM12 colon
LOX IMVI melanoma = test system: LOX IMVI melanoma
M14 melanoma = test system: M14 melanoma
MALME-3M melanoma = test system: MALME-3M melanoma
MCF7 breast = test system: MCF7 breast
MDA-MB-231 breast = test system: MDA-MB-231 breast
MDA-MB-435 melanoma = test system: MDA-MB-435 melanoma
MDA-MB-468 breast = test system: MDA-MB-468 breast
MOLT-4 leukemia = test system: MOLT-4 leukemia
NCI-H226 lung = test system: NCI-H226 lung
NCI-H23 lung = test system: NCI-H23 lung
NCI-H322M lung = test system: NCI-H322M lung
NCI-H460 NSCLC = test system: NCI-H460 NSCLC
NCI-H522 lung = test system: NCI-H522 lung
NCI/ADR-RES ovarian = test system: NCI/ADR-RES ovarian
OVCAR-3 ovarian = test system: OVCAR-3 ovarian
OVCAR-4 ovarian = test system: OVCAR-4 ovarian
OVCAR-5 ovarian = test system: OVCAR-5 ovarian
OVCAR-8 ovarian = test system: OVCAR-8 ovarian
PC-3 prostate = test system: PC-3 prostate
RPMI-8226 leukemia = test system: RPMI-8226 leukemia
RXF 393 renal = test system: RXF 393 renal
SF-268 CNS = test system: SF-268 CNS
SF-295 CNS = test system: SF-295 CNS
SF-539 CNS = test system: SF-539 CNS
SK-MEL-2 melanoma = test system: SK-MEL-2 melanoma
SK-MEL-28 melanoma = test system: SK-MEL-28 melanoma
SK-MEL-5 melanoma = test system: SK-MEL-5 melanoma
SK-OV-3 ovarian = test system: SK-OV-3 ovarian
SN12C renal = test system: SN12C renal
SNB-19 CNS = test system: SNB-19 CNS
SR leukemia = test system: SR leukemia
SW-620 colon = test system: SW-620 colon
T-47D breast = test system: T-47D breast
TK-10 renal = test system: TK-10 renal
U251 glioblastoma = test system: U251 glioblastoma
UACC-257 melanoma = test system: UACC-257 melanoma
UACC-62 melanoma = test system: UACC-62 melanoma
UO-31 renal = test system: UO-31 renal

SMILES: COCCNCc1ccc(-c2cc3nccc(Oc4ccc(NC(=O)C5(C(=O)Nc6ccc(F)cc6)CC5)cc4F)c3s2)nc1
- GI50 ([…]-0 renal): 1.55 µM
- TGI (786-0 renal): 2.89 µM
- GI50 (A498 renal): 1.41 µM
- TGI (A498 renal): 2.72 µM
- GI50 (A549 NSCLC): 1.28 µM
- TGI (A549 NSCLC): 2.56 µM
- GI50 (ACHN renal): 0.682 µM
- TGI (ACHN renal): 1.96 µM
- GI50 (BT-549 breast): 1.62 µM
- TGI (BT-549 breast): 2.98 µM
- GI50 (CAKI-1 renal): 1.25 µM
- TGI (CAKI-1 renal): 2.56 µM
- GI50 (CCRF-CEM leukemia): 1.42 µM
- TGI (CCRF-CEM leukemia): 2.73 µM
- GI50 (COLO 205 colon): 1.14 µM
- TGI (COLO 205 colon): 2.37 µM
- GI50 (DU-145 prostate): 1.75 µM
- TGI (DU-145 prostate): 3.14 µM
- GI50 (HCC-2998 colon): 1.48 µM
- TGI (HCC-2998 colon): 2.81 µM
- GI50 (HCT-116 colon): 1.1 µM
- TGI (HCT-116 colon): 2.31 µM
- GI50 (HCT-15 colon): 1.28 µM
- TGI (HCT-15 colon): 2.55 µM
- GI50 (HL-60(TB) leukemia): 1.48 µM
- TGI (HL-60(TB) leukemia): 2.8 µM
- GI50 (HOP-62 NSCLC): 1.81 µM
- TGI (HOP-62 NSCLC): 3.21 µM
- GI50 (HOP-92 NSCLC): 0.166 µM
- TGI (HOP-92 NSCLC): 1.05 µM
- GI50 (HT29 colon): 0.574 µM
- TGI (HT29 colon): 1.84 µM
- GI50 (IGROV1 ovarian): 1.36 µM
- TGI (IGROV1 ovarian): 2.67 µM
- GI50 (K-562 leukemia): 0.101 µM
- TGI (K-562 leukemia): 0.219 µM
- GI50 (KM12 colon): 0.0309 µM
- TGI (KM12 colon): 1.08 µM
- GI50 (LOX IMVI melanoma): 2.26 µM
- TGI (LOX IMVI melanoma): 3.73 µM
- GI50 (M14 melanoma): 1.37 µM
- TGI (M14 melanoma): 2.67 µM
- GI50 (MALME-3M melanoma): 1.03 µM
- TGI (MALME-3M melanoma): 2.2 µM
- GI50 (MCF7 breast): 1.15 µM
- TGI (MCF7 breast): 2.37 µM
- GI50 (MDA-MB-231 breast): 1.32 µM
- TGI (MDA-MB-231 breast): 2.6 µM
- GI50 (MDA-MB-435 melanoma): 1.37 µM
- TGI (MDA-MB-435 melanoma): 2.68 µM
- GI50 (MDA-MB-468 breast): 1.94 µM
- TGI (MDA-MB-468 breast): 3.36 µM
- GI50 (MOLT-4 leukemia): 0.477 µM
- TGI (MOLT-4 leukemia): 1.63 µM
- GI50 (NCI-H226 lung): 1.58 µM
- TGI (NCI-H226 lung): 2.96 µM
- GI50 (NCI-H23 lung): 0.414 µM
- TGI (NCI-H23 lung): 1.96 µM
- GI50 (NCI-H322M lung): 1.4 µM
- TGI (NCI-H322M lung): 2.72 µM
- GI50 (NCI-H460 NSCLC): 1.45 µM
- TGI (NCI-H460 NSCLC): 2.79 µM
- GI50 (NCI-H522 lung): 1.28 µM
- TGI (NCI-H522 lung): 2.54 µM
- GI50 (NCI/ADR-RES ovarian): 1.56 µM
- TGI (NCI/ADR-RES ovarian): 2.95 µM
- GI50 (OVCAR-3 ovarian): 1.59 µM
- TGI (OVCAR-3 ovarian): 2.96 µM
- GI50 (OVCAR-4 ovarian): 1.36 µM
- TGI (OVCAR-4 ovarian): 2.66 µM
- GI50 (OVCAR-5 ovarian): 1.63 µM
- TGI (OVCAR-5 ovarian): 3.1 µM
- GI50 (OVCAR-8 ovarian): 1.57 µM
- TGI (OVCAR-8 ovarian): 2.92 µM
- GI50 (PC-3 prostate): 1.69 µM
- TGI (PC-3 prostate): 3.09 µM
- GI50 (RPMI-8226 leukemia): 0.499 µM
- TGI (RPMI-8226 leukemia): 1.56 µM
- GI50 (RXF 393 renal): 0.768 µM
- TGI (RXF 393 renal): 2.05 µM
- GI50 (SF-268 CNS): 1.57 µM
- TGI (SF-268 CNS): 2.93 µM
- GI50 (SF-295 CNS): 0.396 µM
- TGI (SF-295 CNS): 1.95 µM
- GI50 (SF-539 CNS): 0.466 µM
- TGI (SF-539 CNS): 1.91 µM
- GI50 (SK-MEL-2 melanoma): 1.41 µM
- TGI (SK-MEL-2 melanoma): 2.71 µM
- GI50 (SK-MEL-28 melanoma): 1.43 µM
- TGI (SK-MEL-28 melanoma): 2.75 µM
- GI50 (SK-MEL-5 melanoma): 1.13 µM
- TGI (SK-MEL-5 melanoma): 2.35 µM
- GI50 (SK-OV-3 ovarian): 1.18 µM
- TGI (SK-OV-3 ovarian): 2.42 µM
- GI50 (SN12C renal): 0.346 µM
- TGI (SN12C renal): 1.67 µM
- GI50 (SNB-19 CNS): 1.9 µM
- TGI (SNB-19 CNS): 3.33 µM
- GI50 (SR leukemia): 1.13 µM
- TGI (SR leukemia): 2.34 µM
- GI50 (SW-620 colon): 1.26 µM
- TGI (SW-620 colon): 2.53 µM
- GI50 (T-47D breast): 1.16 µM
- TGI (T-47D breast): 2.39 µM
- GI50 (TK-10 renal): 1.69 µM
- TGI (TK-10 renal): 3.11 µM
- GI50 (U251 glioblastoma): 1.45 µM
- TGI (U251 glioblastoma): 2.78 µM
- GI50 (UACC-257 melanoma): 0.186 µM
- TGI (UACC-257 melanoma): 0.396 µM
- GI50 (UACC-62 melanoma): 1.24 µM
- TGI (UACC-62 melanoma): 2.51 µM
- GI50 (UO-31 renal): 1.38 µM
- TGI (UO-31 renal): 2.7 µM
